Results reported in US6780875B2, “Quinoline-4-carboxamide derivatives as NK-3 and NK-2 receptor antagonists” (SmithKline Beecham S.p.A., priority 1998, dated 2004).
Structures can show the parent of a compound that is named as a salt.

Row | melting point | Compound
1 | 188 to 190 °C | CCN1CCN(Cc2c(-c3ccccc3)nc3ccccc3c2C(=O)N[C@@H](C)C2CCCCC2)CC1 (as salt: HCl) [Example 37, 3-(4-Ethyl-piperazin-1-ylmethyl)-2-phenyl-quinoline-4-carboxylic acid ((S)-1-cyclohexyl-ethyl)-amide]
2 | 166 to 168 °C | CC[C@H](NC(=O)c1c(CN2CCC(N3CCC(O)CC3)CC2)c(-c2ccccc2)nc2ccccc12)c1ccccc1 [Example 18, 3-(4-Hydroxy-[1,4′]bipiperidinyl-1′-ylmethyl)-2-phenyl-quinoline-4-carboxylic acid ((S)-1-phenyl-propyl)-amide]
3 | 261 to 263 °C | CC[C@H](NC(=O)c1c(CN2CCN(C3CCCCC3)CC2)c(-c2ccccc2)nc2ccccc12)c1ccccc1 (as salt: HCl) [Example 1, 3-(4-Cyclohexyl-piperazin-1-ylmethyl)-2-phenyl-quinoline-4-carboxylic acid ((S)-1-phenyl-propyl)-amide]
4 | 130 to 140 °C | C[C@H](NC(=O)c1c(CN2CCN(C(=NS(C)(=O)=O)N3CCCC3)CC2)c(-c2ccccc2)nc2ccccc12)C1CCCCC1 [Example 84, 3-[4-(1-Methanesulfonylimino-1-pyrrolidin-1-yl-methyl)-piperazin-1-ylmethyl]-2-phenyl-quinoline-4-carboxylic acid ((S)-1-cyclohexyl-ethyl)-amide]
5 | 125 to 126 °C | CC[C@H](NC(=O)c1c(CN2CCN(c3ccccn3)CC2)c(-c2ccccc2)nc2ccccc12)c1ccccc1 [Example 56, 2-Phenyl-3-(4-pyridin-2-yl-piperazin-1-ylmethyl)-quinoline-4-carboxylic acid ((S)-1-phenyl-propyl)-amide]
6 | 204 to 206 °C | C[C@H](NC(=O)c1c(CN2CCC(n3c(=O)[nH]c4ccccc43)CC2)c(-c2ccccc2)nc2ccccc12)C1CCCCC1
7 | 152 to 154 °C | C[C@H](NC(=O)c1c(CN2CCN(c3ccccn3)CC2)c(-c2ccccc2)nc2ccccc12)C1CCCCC1 [Example 59, 2-Phenyl-3-(4-pyridin-2-yl-piperazin-1-ylmethyl)-quinoline-4-carboxylic acid ((S)-1-cyclohexyl-ethyl)-amide]
8 | 173 to 175 °C | CC(C)[C@H](NC(=O)c1c(CN2CCN(C(=O)CCC(=O)O)CC2)c(-c2ccccc2)nc2ccccc12)c1ccccc1 [Example 85, 4-{4-[4-((S)-2-Methyl-1-phenyl-propylcarbamoyl)-2-phenyl-quinolin-3-ylmethyl]-piperazin-1-yl}-4-oxo-butyric acid]
9 | 208 to 210 °C | CC[C@H](NC(=O)c1c(CN2CCC(N3CCCCC3)CC2)c(-c2ccccc2)nc2cc(OC)ccc12)c1ccccc1 (as salt: hydrochloride) [Example 67, 3-[1,4′]Bipiperidinyl-1′-ylmethyl-7-methoxy-2-phenyl-quinoline-4-carboxylic acid ((S)-1-phenyl-propyl)-amide]
10 | 114 to 115 °C | COCCN(CCOC)Cc1c(-c2ccccc2)nc2ccccc2c1C(=O)N[C@@H](C)C1CCCCC1 [Example 58, 3-{[Bis-(2-methoxy-ethyl)-amino]-methyl}-2-phenyl-quinoline-4-carboxylic acid ((S)-1-cyclohexyl-ethyl)-amide]
11 | 133 °C (dec.) | CC[C@H](NC(=O)c1c(CN2CCN(S(N)(=O)=O)CC2)c(-c2ccccc2)nc2ccccc12)c1ccccc1 [Example 90, 2-Phenyl-3-(4-sulfamoyl-piperazin-1-ylmethyl)-quinoline-4-carboxylic acid ((S)-1-phenyl-propyl)-amide]
12 | 182 to 185 °C | CC[C@H](NC(=O)c1c(CN2CCC(N3CCCCC3)CC2)c(-c2ccccc2)nc2ccccc12)c1ccccc1 (as salt: HCl) [Example 14, 3-[1,4′]Bipiperidinyl-1′-ylmethyl-2-phenyl-quinoline-4-carboxylic acid ((S)-1-phenyl-propyl)-amide]
13 | 104 to 106 °C | CCN(CC)CCC(=O)N1CCN(Cc2c(-c3ccccc3)nc3ccccc3c2C(=O)N[C@@H](C)C2CCCCC2)CC1 [Example 47, 3-[4-(3-Diethylamino-propanoyl)-piperazin-1-ylmethyl]-2-phenyl-quinoline-4-carboxylic acid ((S)-1-cyclohexyl-ethyl)-amide]
14 | 170 to 180 °C | C[C@H](NC(=O)c1c(CN2CCN(c3c(N4CCCC4)c(=O)c3=O)CC2)c(-c2ccccc2)nc2ccccc12)C1CCCCC1 [Example 72, 3-[4-(3,4-Dioxo-2-pyrrolidin-1-yl-cyclobut-1-enyl)-piperazin-1-ylmethyl]-2-phenyl-quinoline-4-carboxylic acid ((S)-1-cyclohexyl-ethyl)-amide]
15 | 90 to 95 °C | CC[C@H](NC(=O)c1c(CN2CCC(c3ccccc3)CC2)c(-c2ccccc2)nc2ccccc12)c1ccccc1 [Example 2, 2-Phenyl-3-(4-phenyl-piperidin-1-ylmethyl)-quinoline-4-carboxylic acid ((S)-1-phenyl-propyl)-amide]
16 | 120 to 125 °C | CCN(CC)CCC(=O)N1CCN(Cc2c(-c3ccccc3)nc3ccccc3c2C(=O)N[C@H](c2ccccc2)C(C)C)CC1 [Example 80, 3-[4-(3-Diethylamino-propanoyl)-piperazin-1-ylmethyl]-2-phenyl-quinoline-4-carboxylic acid ((S)-2-methyl-1-phenyl-propyl)-amide]
17 | 208 to 210 °C | C[C@H](NC(=O)c1c(CN2CCC(N3CCCCC3)CC2)c(-c2ccccc2)nc2ccccc12)c1ccccc1 (as salt: HCl) [Example 30, 3-[1,4′]Bipiperidinyl-1′-ylmethyl-2-phenyl-quinoline-4-carboxylic acid ((S)-1-phenyl-ethyl)-amide]
18 | 168 to 171 °C | C[C@H](NC(=O)c1c(CN2CCN(CCc3ccccc3)CC2)c(-c2ccccc2)nc2ccccc12)C1CCCCC1 (as salt: HCl) [Example 5, 3-(4-Phenethyl-piperazin-1-ylmethyl)-2-phenyl-quinoline-4-carboxylic acid ((S)-1-cyclohexyl-ethyl)-amide]
19 | 142 to 144 °C | CC[C@H](NC(=O)c1c(CN2CCN(CCO)CC2)c(-c2ccccc2)nc2ccccc12)c1ccccc1 [Example 28, 3-[4-(2-Hydroxy-ethyl)-piperazin-1-ylmethyl]-2-phenyl-quinoline-4-carboxylic acid ((S)-1-phenyl-propyl)-amide]
20 | 117 to 119 °C | CC[C@H](NC(=O)c1c(CN2CCN(C(C)=O)CC2)c(-c2ccccc2)nc2ccccc12)c1ccccc1 [Example 23, 3-(4-Acetyl-piperazin-1-ylmethyl)-2-phenyl-quinoline-4-carboxylic acid ((S)-1-phenyl-propyl)-amide]
21 | 189 to 191 °C | CC(C)[C@H](NC(=O)c1c(CN2CCN(C(=O)c3ccccc3C(=O)O)CC2)c(-c2ccccc2)nc2ccccc12)c1ccccc1 [Example 86, 2-(1-{4-[4-((S)-2-Methyl-1-phenyl-propylcarbamoyl)-2-phenyl-quinolin-3-ylmethyl]-piperazin-1-yl}-methanoyl)-benzoic acid]
22 | 174 to 176 °C | C[C@H](NC(=O)c1c(CN2CCN(C3=NCCS3)CC2)c(-c2ccccc2)nc2ccccc12)C1CCCCC1 [Example 74, 3-[4-(4,5-Dihydro-thiazol-2-yl)-piperazin-1-ylmethyl]-2-phenyl-quinoline-4-carboxylic acid ((S)-1-cyclohexyl-ethyl)-amide]
23 | 113 to 115 °C | COCCN1CCN(Cc2c(-c3ccccc3)nc3ccccc3c2C(=O)N[C@@H](C)C2CCCCC2)CC1 [Example 17, 3-[4-(2-Methoxy-ethyl)-piperazin-1-ylmethyl]-2-phenyl-quinoline-4-carboxylic acid ((S)-1-cyclohexyl-ethyl)-amide]
24 | 204 to 206 °C | CNC(=S)N1CCN(Cc2c(-c3ccccc3)nc3ccccc3c2C(=O)N[C@@H](C)C2CCCCC2)CC1 [Example 75, 3-(4-Methylthiocarbamoyl-piperazin-1-ylmethyl)-2-phenyl-quinoline-4-carboxylic acid ((S)-1-cyclohexyl-ethyl)-amide]
25 | 184 to 185 °C | C[C@H](NC(=O)c1c(CN2CCC3(CC2)OCCO3)c(-c2ccccc2)nc2ccccc12)C1CCCCC1 [Example 61, 3-(1,4-Dioxa-8-aza-spiro[4.5]dec-8-ylmethyl)-2-phenyl-quinoline-4-carboxylic acid ((S)-1-cyclohexyl-ethyl)-amide]
26 | 196 to 198 °C | CC[C@H](NC(=O)c1c(CN2CCN3CCCC3C2)c(-c2ccccc2)nc2ccccc12)c1ccccc1 (stereo partly drawn) (as salt: HCl) [Example 49, 3-(Hexahydro-pyrrolo[1,2-a]pyrazin-2-ylmethyl)-2-phenyl-quinoline-4-carboxylic acid ((S)-1-phenyl-propyl)-amide]
27 | 180 to 183 °C | CC(C)N1CCN(Cc2c(-c3ccccc3)nc3ccccc3c2C(=O)N[C@@H](C)C2CCCCC2)CC1 (as salt: hydrochloride) [Example 4, 3-(4-Isopropyl-piperazin-1-ylmethyl)-2-phenyl-quinoline-4-carboxylic acid ((S)-1-cyclohexyl-ethyl)-amide]
28 | 107 to 111 °C (dec.) | CC[C@H](NC(=O)c1c(CN2CCN(S(=O)(=O)N(C)C)CC2)c(-c2ccccc2)nc2ccccc12)c1ccccc1 [Example 91, 3-(4-Dimethylsulfamoyl-piperazin-1-ylmethyl)-2-phenyl-quinoline-4-carboxylic acid ((S)-1-phenyl-propyl)-amide]
29 | 164 to 165 °C | C[C@H](NC(=O)c1c(CN2CCN(C(=C[N+](=O)[O-])N3CCCC3)CC2)c(-c2ccccc2)nc2ccccc12)C1CCCCC1 [Example 81, 3-[4-(2-Nitro-1-pyrrolidin-1-yl-vinyl)-piperazin-1-ylmethyl]-2-phenyl-quinoline-4-carboxylic acid ((S)-1-cyclohexyl-ethyl)-amide]
30 | 219 to 221 °C | C[C@H](NC(=O)c1c(CN2CCC(C(N)=O)CC2)c(-c2ccccc2)nc2ccccc12)C1CCCCC1 [Example 36, 3-(4-Carbamoyl-piperidin-1-ylmethyl)-2-phenyl-quinoline-4-carboxylic acid ((S)-1-cyclohexyl-ethyl)-amide]
